The source of these data is ChEMBL document CHEMBL1201862, “PubChem BioAssay data set” (2004).

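Exposure lasted 48 hours, with cells grown in 96-well plates and compounds tested at five concentrations. GI50 = concentration required for 50% inhibition of growth.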 Active and inactive are the calls of the source. Rule as the data show it: active = GI50 up to about 1.1 µM and inactive = higher.

Some test systems named below: MOLT-4; NCI-H522; SN12C; PC-3; SNB-19; SNB-75; U-251; HCC 2998; OVCAR-8; HT-29; CCRF-CEM; SF-268; SK-OV-3; UACC-62; CAKI-1; NCI-H23; DU-145; HOP-62; Malme-3M; HL-60.
Assay in all cases: NCI-60 cell line screen, 48 h

For the compound `CCCCCCCCCCCCCCCCCCNc1ccn(C2OC(COP(=O)(O)OCC3OC(n4cc(C)c(=O)[nH]c4=O)CC3O)C(O)C2O)c(=O)n1` (stereo not drawn), the GI50 in the assay on MOLT-4 was 10.6 µM (inactive); in the assay on NCI-H522, 15.8 µM (inactive); in the assay with SN12C, 17.7 µM (inactive); in the assay with PC-3, 3.1 µM (inactive); in the assay on SNB-19 it was 15.4 µM (inactive); in the assay on SNB-75, 17.5 µM (inactive). In addition, the GI50 was 18.9 µM (inactive) with U-251; 16.7 µM (inactive) in the assay with HCC 2998; 17.8 µM (inactive) in the assay on OVCAR-8; 16.7 µM (inactive) with HT-29; 10.4 µM (inactive) in the assay on CCRF-CEM; 17.4 µM (inactive) in the assay with SF-268. Also, the GI50 in the assay with SK-OV-3 is 17.1 µM (inactive); with UACC-62, 18.4 µM (inactive); with CAKI-1, 18.4 µM (inactive); in the assay on NCI-H23, 15.2 µM (inactive); in the assay on DU-145, 17.8 µM (inactive); in the assay on HOP-62, 16.7 µM (inactive). Besides, in the assay on Malme-3M, the GI50 is 16.6 µM (inactive).
As for `CCOC(=O)NC(C(F)(F)F)(C(F)(F)F)P(=O)(OC(C)C)OC(C)C`, the GI50 with HL-60, with MOLT-4, in the assay on SN12C, in the assay on PC-3, with SNB-19 and in the assay on SNB-75 was > 100 µM (inactive) throughout. The GI50 in the assay with U-251, with HCC 2998, in the assay with OVCAR-8, in the assay on HT-29, in the assay on CCRF-CEM and in the assay on SF-268 was > 100 µM (inactive) throughout. For the same compound, the GI50 with SK-OV-3, in the assay on UACC-62, in the assay with NCI-H23, in the assay with DU-145, in the assay on HOP-62 and in the assay on Malme-3M was > 100 µM (inactive) in each case.
Turning to `CCC1(O)CC(CCN(Cc2ccccc2)C(=O)OCc2ccccc2)C(OCc2ccccc2)C1O` (stereo not drawn), the GI50 with MOLT-4 is 1.93 µM (inactive); in the assay with NCI-H522, 10.1 µM (inactive); with SN12C it was 24.4 µM (inactive); with PC-3, 10.7 µM (inactive); in the assay on SNB-19 it was 15.6 µM (inactive); in the assay on SNB-75 it was 12.5 µM (inactive). In addition, the GI50 in the assay on U-251 is 27.9 µM (inactive); in the assay on HCC 2998 it was 14 µM (inactive); in the assay on OVCAR-8, 15.6 µM (inactive); in the assay with HT-29, 15.3 µM (inactive); with CCRF-CEM, 16.1 µM (inactive); in the assay with SK-OV-3, 17.4 µM (inactive). In addition, the GI50 with UACC-62 was 12.9 µM (inactive); in the assay with CAKI-1 it was 25.3 µM (inactive); with NCI-H23, 14 µM (inactive); in the assay on DU-145 it was 18.5 µM (inactive); in the assay with HOP-62, 14.5 µM (inactive).
With `Cc1ccc(OCC2OC(C#N)C(Oc3ccc(C)cc3)C2Oc2ccc(C)cc2)cc1` (stereo not drawn), the GI50 with HL-60, in the assay on MOLT-4, in the assay on NCI-H522, in the assay with SN12C, in the assay on PC-3 and with SNB-19 was > 100 µM (inactive) each time. The GI50 was 6.79 µM (inactive) in the assay with SNB-75; > 100 µM (inactive) with U-251; > 100 µM (inactive) in the assay with HCC 2998; > 100 µM (inactive) in the assay on OVCAR-8; > 100 µM (inactive) with HT-29; > 100 µM (inactive) in the assay with CCRF-CEM. The GI50 with SF-268, in the assay on SK-OV-3, with UACC-62, with CAKI-1, in the assay with NCI-H23 and with DU-145 was > 100 µM (inactive) each time. Further, the GI50 in the assay with HOP-62 is > 100 µM (inactive).
As to `COc1ccc(/N=C2/SC(=N/N=c3\sc4ccccc4n3C)S/C2=N/c2ccc(OC)cc2)cc1`, the GI50 with MOLT-4 is 13.1 µM (inactive); in the assay on NCI-H522, 70.8 µM (inactive); with SN12C, > 100 µM (inactive); in the assay with PC-3 it was > 100 µM (inactive); in the assay with SNB-19, > 100 µM (inactive); in the assay on SNB-75, 24.6 µM (inactive). Besides, the GI50 in the assay with U-251 was 55.5 µM (inactive); in the assay on HCC 2998 it was > 100 µM (inactive); with OVCAR-8, > 100 µM (inactive); in the assay on HT-29, > 100 µM (inactive); in the assay with SF-268, > 100 µM (inactive); with SK-OV-3, 76.7 µM (inactive). Further, the GI50 in the assay on UACC-62 is 37.6 µM (inactive); in the assay with CAKI-1 it was > 100 µM (inactive); in the assay with NCI-H23 it was 41.9 µM (inactive); in the assay with DU-145, > 100 µM (inactive); in the assay with HOP-62, 31.6 µM (inactive); in the assay on Malme-3M, > 100 µM (inactive).
Consider `O=c1[nH]cnc2c1ncn2[C@H]1CO[C@@H](CO)[C@@H]1O`, for which the GI50 in the assay on MOLT-4, in the assay on NCI-H522, with SN12C, in the assay on PC-3, in the assay on SNB-75 and with U-251 was > 100 µM (inactive) throughout. For the same compound, the GI50 with HCC 2998, in the assay with HT-29, with CCRF-CEM, with SF-268, in the assay on SK-OV-3 and in the assay with UACC-62 was > 100 µM (inactive) throughout. Also, the GI50 in the assay on CAKI-1, in the assay with NCI-H23, in the assay with DU-145, with HOP-62 and in the assay on Malme-3M was > 100 µM (inactive) in each case.
As to `CN(C)CCN1C(=O)c2ccccc2C1(O)c1ccc(Cl)cc1` (stereo not drawn), the GI50 in the assay with HL-60 was 26.4 µM (inactive); in the assay with MOLT-4, 39.3 µM (inactive); in the assay with SN12C, > 100 µM (inactive); in the assay with PC-3 it was 50.1 µM (inactive); with SNB-19, > 100 µM (inactive); with SNB-75, 83.4 µM (inactive). The GI50 in the assay on U-251 was 99.1 µM (inactive); in the assay on HCC 2998, 62.7 µM (inactive); with OVCAR-8, > 100 µM (inactive); in the assay on HT-29 it was 42.7 µM (inactive); in the assay with CCRF-CEM, 32.4 µM (inactive); in the assay on SF-268, > 100 µM (inactive). Besides, the GI50 was > 100 µM (inactive) in the assay on SK-OV-3; 32.7 µM (inactive) in the assay with UACC-62; 40.8 µM (inactive) in the assay with CAKI-1; > 100 µM (inactive) in the assay with NCI-H23; > 100 µM (inactive) with DU-145; > 100 µM (inactive) in the assay on HOP-62. Moreover, the GI50 in the assay with Malme-3M is 28.6 µM (inactive).
For `CC1=C(C(=O)NNC(=O)C(N)=O)CC(C(=O)NNC(=O)C(N)=O)=C(C)N1`, the GI50 with HL-60 is 47.4 µM (inactive); in the assay on MOLT-4, > 100 µM (inactive); with NCI-H522, > 100 µM (inactive); in the assay with SN12C it was > 100 µM (inactive); in the assay on PC-3, > 100 µM (inactive); with SNB-19, > 100 µM (inactive). Moreover, the GI50 with SNB-75, in the assay with U-251, with HCC 2998, in the assay on OVCAR-8, in the assay with HT-29 and in the assay with CCRF-CEM was > 100 µM (inactive) throughout. Also, the GI50 in the assay with SF-268, in the assay on SK-OV-3, with UACC-62, in the assay on CAKI-1, in the assay with NCI-H23 and with DU-145 was > 100 µM (inactive) in each case. Further, in the assay with HOP-62, the GI50 was > 100 µM (inactive).
`CN1N=C(c2ccncc2)OC1c1ccc(C(F)(F)F)cc1` (stereo not drawn): the GI50 in the assay on HL-60, in the assay on MOLT-4, with NCI-H522, in the assay on SN12C, with PC-3 and in the assay with SNB-19 was > 100 µM (inactive) throughout. Also, the GI50 was 0.491 µM (active) in the assay on SNB-75; 91 µM (inactive) in the assay with U-251; > 100 µM (inactive) in the assay on HCC 2998; > 100 µM (inactive) in the assay on OVCAR-8; > 100 µM (inactive) in the assay on HT-29; > 100 µM (inactive) in the assay with CCRF-CEM. For the same compound, the GI50 in the assay with SF-268 was > 100 µM (inactive); in the assay on SK-OV-3, > 100 µM (inactive); with UACC-62, > 100 µM (inactive); in the assay on NCI-H23, > 100 µM (inactive); in the assay on DU-145, > 100 µM (inactive); in the assay on HOP-62 it was 82.8 µM (inactive).
As for `CC(C(=O)O)c1ccc(-n2nnc3c(=O)[nH][nH]c(=O)c32)cc1` (stereo not drawn), the GI50 in the assay with HL-60, in the assay with MOLT-4, in the assay with SN12C, in the assay with PC-3, in the assay on SNB-19 and in the assay with U-251 was > 100 µM (inactive) in each case. Besides, the GI50 with HCC 2998, in the assay on OVCAR-8, with CCRF-CEM, in the assay on CAKI-1, in the assay with NCI-H23 and in the assay with DU-145 was > 100 µM (inactive) throughout. Moreover, the GI50 in the assay with HOP-62 and in the assay with Malme-3M was > 100 µM (inactive) each time.
For `Nc1c(C(=O)c2ccccc2)nnc2ccccc12`, the GI50 in the assay with HL-60 is < 0.01 µM (active); with MOLT-4, 36.1 µM (inactive); in the assay on PC-3, 24.8 µM (inactive); in the assay on SNB-19, 37.9 µM (inactive); in the assay with U-251, 34.5 µM (inactive); with HCC 2998, 23.4 µM (inactive). The GI50 in the assay on OVCAR-8 was 33.7 µM (inactive); in the assay with HT-29, 25.8 µM (inactive); with SF-268, 35.6 µM (inactive); with UACC-62 it was 17.5 µM (inactive); in the assay on CAKI-1, 29.5 µM (inactive); in the assay with NCI-H23, 24.8 µM (inactive). Also, the GI50 in the assay with DU-145 is 23.4 µM (inactive); in the assay with HOP-62, 24.5 µM (inactive); in the assay on Malme-3M it was 27 µM (inactive).
